Measurements published in article PMC12111156, “Nitazoxanide Analogs: Synthesis, In Vitro Giardicidal Activity, and Effects on Giardia lamblia Metabolic Gene Expression” (International Journal of Molecular Sciences, 2025).
pIC50: −log10 of the molar value. Where two headings read alike, the source gives them in different places.

Key:
[1] = system: G. lamblia strain ATCC 30957; experiment: Viability of Giardia lamblia trophozoite culture (trypan blue count); format: cell-based; details: for Inhibition of growth of G. lamblia parasite culture: concentration not given
Experimental: Viability analysis was performed on G. lamblia strain ATCC 30957 grown in TYI-S-33 medium supplemented with 10% fetal bovine serum (FBS) and an antibiotic. Pre-culture was performed in 16 × 150 mm borosilicate tubes with a medium inoculated with 2 × 10^5 trophozoites and incubated at 37 °C for 48 h. For the recovery of the trophozoites, the vial was incubated in ice for 8 min and centrifuged for 6 min at 2000 rpm. The concentrated trophozoites were suspended in 1 mL of phosphate-buffered saline (PBS), and the number of trophozoites was counted by placing a 1:1 volume ratio of cell culture and trypan blue dye (4 g/L); then, a homogeneous drop of the mixture was taken and placed in the Neubauer chamber, and the total cells were counted.
The curves were plotted for concentrations of 0–50 µM of each compound. The assay was performed by placing 1.5 × 10^5 cells in 1.5 mL microcentrifuge tubes with a supplemented medium and different concentrations of each compound (0–50 µM). The negative control was performed under the same conditions without a compound, and the drugs NTZ and MTZ were used as positive controls. The samples were incubated for 48 h at 37 °C. At the end of the incubation, the cell viability count was performed using the trypan blue technique. The viability calculation was performed following the formula nv/(nv + nm), where nv represents the live cells and nm represents the dead cells; the viability value obtained was expressed as a percentage. The IC50 value of each compound was determined using the IC50 Calculator software (https://www.aatbio.com/tools/ic50-calculator).

[2] = system: G. lamblia strain resistant to nitazoxanide; experiment: Giardicidal activity in nitazoxanide-resistant strain (trypan blue count); format: cell-based; details: Giardia duodenalis, 48 h, read-out: IC50 G. lamblia (NTZ Resistant)
Experimental: A pre-culture at confluence was used as a starting point, and a concentration–response curve was plotted using an initial compound concentration of 25 μM in a final volume of 1.5 mL of TYI-S-33 medium, followed by serial dilutions of the compound. Each treatment was inoculated with 1.5 × 10^5 trophozoites and incubated for 48 h at 37 °C. At the end of the incubation, the number of trophozoites was determined using the trypan blue assay and by counting in a Neubauer chamber. The viability percentage at each compound concentration was calculated using the negative control as a reference.

[3] = Cytotoxicity, XTT viability assay, HT-29; details: human, CC50 HT-29, 48 h, XTT
Experimental: (§1) The cytotoxicity assay was performed to evaluate the effect of the selected compounds on human cells. Colon cells were used because they are cell lines like those present in the microenvironment where G. lamblia colonizes, which is the small intestine of the host. The assay was performed using the human cell lines Caco-2 (ATCC HTB-37) and HT-29 (ATCC […]). Cell viability was determined using the Cell Proliferation Kit II (XTT, St. Louis, MO, EE. UU.). A cell suspension of 2 × 10^3 cells/mL was prepared in Dulbecco’s modified Eagle’s medium (DMEM) supplemented with 10% inactivated fetal bovine serum and an antibiotic (1% penicillin/streptomycin, 5000 U/mL, in a volume of 100 µL). The suspension was added to a 96-well plate. The plates were incubated for 24 h at 37 °C in a 5% CO2 atmosphere. […] The cells were incubated for 48 h at 37 °C in a 5% CO2 atmosphere. Cell viability was determined using the following steps. The medium in each well was replaced with 100 µL of fresh medium, and 50 µL of XTT labeling mix was added per well. The reaction was incubated for four hours at 37 °C and 5% CO2. After incubation, the absorbance of the samples on the plate was measured at 450 nm. Each compound was assayed in triplicate in three independent experiments. CC50 values (μM) were determined using the nonlinear regression function of GraphPad Prism version 8 for Windows.

HT-29 cells [4] = experiment: Cytotoxicity, XTT viability assay, HT-29; details: for Selectivity index (CC50/IC50) HT-29: CC50 HT-29 / IC50 trophozoite ATCC strain 30957
Experimental: as §1

[5] = Cytotoxicity, XTT viability assay, Caco-2; details: human
Experimental: as §1

Caco-2 and HT-29 cells = experiment: Cytotoxicity, XTT viability assay, stated for both cell lines; format: cell-based, human; details: 125 µM, 48 h
Experimental: The suspension was added to a 96-well plate. […] Cell viability was determined using the following steps.

[6] = system: Giardia lamblia trophozoites (strain ATCC 30957) gene expression; experiment: Gene expression in trophozoites by RT-qPCR; format: cell-based; details: IC50 of each compound, 48 h
Experimental: To determine the alterations in the parasite’s metabolism and cellular processes induced by the compounds, the expression levels of various genes encoding metabolic, structural, and oxidative stress response proteins were evaluated. G. lamblia strain ATCC 30957 was grown by following previously established culture parameters.
The culture tube was incubated on ice for 15 min and then centrifuged at 2000 rpm for 6 min to concentrate the cell pellet. Cell counting was performed using the trypan blue method. A 500 µL volume of Trizol ® was added, and it was gently homogenized; then, 60 µL of chloroform was added, and it was homogenized for 10 s with a vortex and incubated on ice for 3 min. Afterward, it was centrifuged at 12,000 rpm for 10 min, the aqueous phase was transferred to a new tube, 200 µL of isopropanol was added, and it was incubated for 3 h on ice. The sample was then centrifuged for 10 min at 12,000 rpm, and the supernatant was discarded. A 600 µL volume of ethanol (70%) was added, homogenized, and centrifuged. In the end, the supernatant was removed, and the sample was centrifuged again to dry the excess alcohol. The pellet was dried. Finally, it was resuspended in 25 µL of sterile MilliQ water. The concentration and purity of the extracted RNA were determined using the NanoDrop® Spectrophotometer ND-1000 (NanoDrop Technologies, Wilmington, DE, USA). […] RNA purity and integrity were confirmed using 0.8% (w/v) agarose gels under denaturing conditions.
The synthesis of cDNA was carried out with […] of purified RNA, and 1 U of […] was added (Thermo Thermo Fisher Scientific, Waltham, MA, USA). First-strand cDNA synthesis was carried out using 1 μg of DNase-treated RNA, combined with a 10 mM dNTP mix, oligo(dT)18 primer, and RevertAid reverse transcriptase (Thermo Scientific) in a final reaction volume of 20 μL. The reaction mixture was incubated at 42 °C for 60 min, followed by heat inactivation at 70 °C for 10 min. The synthesized cDNA was stored at −20 °C until further use. The level of purity and concentration of the cDNA were determined using the NanoDrop® Spectrophotometer ND-1000 (NanoDrop Technologies, Wilmington, DE, USA).
Specific oligonucleotides were designed to determine the expression levels of the gene’s phosphofructokinase, pyruvate kinase, glucose-6-phosphate dehydrogenase::6-phosphogluconolactonase, 6-phosphogluconate dehydrogenase, and transketolase. The design was based on gene sequences available in the National Center for Biotechnology Information (NCBI) database, adhering to the following criteria: an oligonucleotide length of 18–20 bp, a melting temperature (Tm) of 61 °C, a GC content of approximately 40%, and an amplicon size between 80 and 200 bp (Table 4). The oligonucleotides were synthesized by the Sequencing and Synthesis Unit of the Institute of Biotechnology, UNAM.
Additionally, previously reported primers that were used for the gene expression analysis of G. lamblia were also obtained (Table 4). These primers target genes encoding surface structural protein, giardin, actin, pyruvate:ferredoxin oxidoreductase, pyruvate phosphate dikinase, NADH oxidase, triose phosphate isomerase, glyceraldehyde-3-phosphate dehydrogenase, and Aldolase.
Amplification was performed using a StepOne™ Real-Time PCR System and the Fast SYBR® Green Master Mix kit (Applied Biosystems, Foster City, CA, USA) under the following conditions: an initial denaturation at 95 °C for 30 s, followed by 40 cycles of 95 °C for 3 s and 60 °C for 30 s. The melt curve analysis was conducted post-amplification by gradually increasing the temperature from 60 °C to 95 °C. […] Normalization was performed using the geometric mean of cycle threshold (Ct) values, and the relative expression levels of the target genes were calculated using the 2^−ΔΔCt method. Each reaction was performed in five replicates for all analyzed genes and strains. Results are presented as mean values ± standard deviation (SD).

[7] = system: G6PD::6PGL enzyme of G. lamblia; details: cited from earlier work
HT-29 cells [8] = system: HT-29 cells; design: method as in PMID 38893461; details: cited from earlier work
Caco-2 cells = system: Caco-2 cells; design: method as in PMID 38893461; details: cited from earlier work
[9] = system: Giardia lamblia (giardiasis); design: method as in PMID 11432808, PMID 34378955, PMID 32122530, PMID 37511272; details: cited from earlier work
[10] = Giardia duodenalis, ATCC30957, 48 h, trophozoites ATCC 30957, 48 h, 37 °C, read-out: IC50 G. lamblia
[11] = trophozoites ATCC 30957, 48 h, 37 °C, read-out: IC50 G. lamblia
[12] = ratio of IC50 values, ATCC strain

Row | SMILES | pIC50 [1, 10] | Inhibition of growth of G. lamblia parasite culture [1] | pIC50 [1, 11] | pIC50 [2] | Selectivity index (CC50/IC50) HT-29 (HT-29 cells [4]) | selectivity ratio at 48 h ([5]; Caco-2) | Decrease of cell viability (Caco-2 and HT-29 cells) | G6PD::6PGL gene expression vs control [6] | GIA (giardin) gene expression, increase vs control [6] | NADHox gene expression, increase vs control [6] | PFK gene expression vs control [6] | PPDK gene expression vs control [6] | TKT gene expression, decrease vs control [6] | Inhibition of the G6PD::6PGL enzyme (in words) [7] | CC50 (HT-29 cells [8]) | CC50 (Caco-2 cells) | CC50 at 48 h [3] | CC50 at 48 h ([5]; Caco-2) | PFOR gene expression vs control [6] | TKT gene expression, increase vs control [6] | also measured
1 | CCCCOc1ccc(NC(=O)Nc2ncc([N+](=O)[O-])s2)cc1 [CNZ-8] | > 4.82 | more than 98% | 4.95 | 4.86 | 56 | 57 | up to 20% | 19.4 fold change | 12.5 times | 4.2 times | reduction | 8.2 fold change | 1.4 times | inhibitors of the G6PD enzyme | – | – | – | – | – | – | CC50 at 48 h ([3]; HT-29 cells): 622 µM; CC50 at 48 h ([5]; Caco-2, CC50 Caco-2, 48 h, XTT): 633 µM
2 | Cc1ncc([N+](=O)[O-])n1CCO [MTZ, metronidazole, reference compound] | 5.37 | – | 5.47 | – | 161 | 160 | – | – | – | – | – | – | – | – | 550 µM | 545 µM | – | – | – | – | –
3 | O=C(Nc1ccc([N+](=O)[O-])cc1)Nc1ncc([N+](=O)[O-])s1 [CNZ-7] | – | more than 98% | – | 5.60 | 100 | 121 | up to 20% | 11.4 fold change | 2.6 times | 1.7 times | reduction | 15.8 fold change | – | inhibitors of the G6PD enzyme | – | – | 529 µM | 640 µM | 7.4 fold change | 1.9 times | ACT (actin) gene expression, increase vs control [6]: 2.1 times
4 | CC(=O)Oc1ccccc1C(=O)Nc1ncc([N+](=O)[O-])s1 [NTZ, nitazoxanide] | – | – | – | 5.14 | 147 | 134 | – | 48.3 fold change | did not show changes in expression | lower | reduction | – | – | – | 634 µM | 580 µM | – | – | 14 fold change | 36.1 times | pIC50 ([1]; Giardia duodenalis, ATCC30957, 48 h, read-out: IC50 G. lamblia, trophozoites ATCC 30957, 48 h, 37 °C): 5.47; pIC50 ([1]; read-out: IC50 G. lamblia, trophozoites ATCC 30957, 48 h, 37 °C): 5.37; 6PGDH gene expression vs control [6]: differential overexpression; GAPDH gene expression vs control [6]: 17.2 fold change; Inhibition of GlG6PD::6PGL (in words) [7]: catalytic inhibitor; Efficacy in treatment of giardiasis [9]: 71%
5 | O=C(Nc1ncc([N+](=O)[O-])s1)c1cccc([N+](=O)[O-])c1 [FLP-8, 3-Nitro-N-(5-nitro-1,3-thiazol-2-yl)benzamide] | – | more than 98% | – | 5.92 | 436 | 460 | ≤ 50% | – | did not show changes in expression | 1.7 times | 2.7 fold change | – | 1.7 times | not inhibitors of the enzyme | – | – | 43.6 µM | 46 µM | – | – | Decrease of parasite viability ([1]; 25 µM): 100%; Relative potency compared with MTZ [1, 12]: 34 times; Relative potency compared with NTZ [1, 12]: 43 times; CC50 (HT-29 cells [4]; read-out: CC50 HT-29, 48 h, XTT): 43.7 µM; VSP gene expression, increase vs control [6]: 2.4 times
